The record followed here is PubChem BioAssay AID1259407 (Chemical Carcinogenesis Research Information System (CCRIS), 2018).

The source made the active and inactive calls. No rule for the calls is given here.

The data set has as its system CCRIS mutagenicity, Ames/micronucleus/aberration tests. As to the kind of experiment: CCRIS mutagenicity studies.
Setting [1] is: Test System: AMES SALMONELLA TYPHIMURIUM, Strain/Indicator: TA98, Metabolic Activation: NONE, Method: STANDARD PLATE.
[2] abbreviates: Test System: AMES SALMONELLA TYPHIMURIUM, Strain/Indicator: TA98, Metabolic Activation: RAT, LIVER, S-9, AROCLOR 1254, Method: STANDARD PLATE.
Where [3] appears, read: Test System: AMES SALMONELLA TYPHIMURIUM, Strain/Indicator: TA1537, Metabolic Activation: NONE, Method: STANDARD PLATE.
Setting [4] is: Test System: AMES SALMONELLA TYPHIMURIUM, Strain/Indicator: TA1537, Metabolic Activation: RAT, LIVER, S-9, AROCLOR 1254, Method: STANDARD PLATE.
[5] abbreviates: Test System: AMES SALMONELLA TYPHIMURIUM, Strain/Indicator: TA1538, Metabolic Activation: NONE, Method: STANDARD PLATE.
[6] abbreviates: Test System: AMES SALMONELLA TYPHIMURIUM, Strain/Indicator: TA1538, Metabolic Activation: RAT, LIVER, S-9, AROCLOR 1254, Method: STANDARD PLATE.
Setting [7] is: Test System: MOUSE LYMPHOMA, Strain/Indicator: L5178Y (TK+/TK-), Metabolic Activation: NONE, Method: SUSPENSION/PLATE.
[8] abbreviates: Test System: AMES SALMONELLA TYPHIMURIUM, Strain/Indicator: TA98, Metabolic Activation: NONE, Method: PREINCUBATION
[9] abbreviates: Test System: AMES SALMONELLA TYPHIMURIUM, Strain/Indicator: TA100, Metabolic Activation: NONE, Method: PREINCUBATION

Take `Cc1ccc(NCCO)cc1O`: the mutagenic call runs as follows: under setting [1], “inactive; negative”; under setting [2], “inactive; negative”; (Test System: AMES SALMONELLA TYPHIMURIUM, Strain/Indicator: TA100, Metabolic Activation: NONE, Method: STANDARD PLATE) “inactive; negative”; (Test System: AMES SALMONELLA TYPHIMURIUM, Strain/Indicator: TA100, Metabolic Activation: RAT, LIVER, S-9, AROCLOR 1254, Method: STANDARD PLATE) “inactive; negative”; (Test System: AMES SALMONELLA TYPHIMURIUM, Strain/Indicator: TA1535, Metabolic Activation: NONE, Method: STANDARD PLATE) “inactive; negative”; (Test System: AMES SALMONELLA TYPHIMURIUM, Strain/Indicator: TA1535, Metabolic Activation: RAT, LIVER, S-9, AROCLOR 1254, Method: STANDARD PLATE) “inactive; negative”. Moreover, the mutagenic call reads like this: under setting [3], “inactive; negative”; under setting [4], “inactive; negative”; under setting [5], “inactive; negative”; under setting [6], “inactive; negative”; under setting [7], “inactive; negative”; (Test System: UDS HUMAN CELLS, Strain/Indicator: THY INCORP, Metabolic Activation: NONE, Method: LIQUID SCINTILLATION COUNTING) “inactive; negative”. Besides, under “Test System: UDS HUMAN CELLS, Strain/Indicator: THY INCORP, Metabolic Activation: RAT, LIVER, S-9, PHENOBARBITAL AND BETA-NAPHTHOFLAVONE, Method: LIQUID SCINTILLATION COUNTING”, the mutagenic call is “inactive; negative”.

`Cc1ccc(S(=O)(=O)O)cc1C`: the mutagenic call is “inactive; negative” (Test System: AMES SALMONELLA TYPHIMURIUM, Strain/Indicator: TA98, Metabolic Activation: HAMSTER LIVER S-9, AROCLOR 1254 (10%), Method: PREINCUBATION); “inactive; negative” (Test System: AMES SALMONELLA TYPHIMURIUM, Strain/Indicator: TA98, Metabolic Activation: HAMSTER, LIVER, S-9, AROCLOR 1254 (10%), Method: PREINCUBATION); “inactive; negative” under setting [8]; “inactive; negative” (Test System: AMES SALMONELLA TYPHIMURIUM, Strain/Indicator: TA98, Metabolic Activation: RAT LIVER S-9, AROCLOR 1254 (10%), Method: PREINCUBATION); “inactive; negative” (Test System: AMES SALMONELLA TYPHIMURIUM, Strain/Indicator: TA98, Metabolic Activation: RAT, LIVER, S-9, AROCLOR 1254 (10%), Method: PREINCUBATION); “inactive; negative” (Test System: AMES SALMONELLA TYPHIMURIUM, Strain/Indicator: TA100, Metabolic Activation: HAMSTER LIVER S-9, AROCLOR 1254 (10%), Method: PREINCUBATION). In addition, the mutagenic call by setting is: (Test System: AMES SALMONELLA TYPHIMURIUM, Strain/Indicator: TA100, Metabolic Activation: HAMSTER, LIVER, S-9, AROCLOR 1254 (10%), Method: PREINCUBATION) “inactive; negative”; under setting [9], “inactive; negative”; (Test System: AMES SALMONELLA TYPHIMURIUM, Strain/Indicator: TA100, Metabolic Activation: RAT LIVER S-9, AROCLOR 1254 (10%), Method: PREINCUBATION) “inactive; negative”; (Test System: AMES SALMONELLA TYPHIMURIUM, Strain/Indicator: TA100, Metabolic Activation: RAT, LIVER, S-9, AROCLOR 1254 (10%), Method: PREINCUBATION) “inactive; negative”; (Test System: AMES SALMONELLA TYPHIMURIUM, Strain/Indicator: TA1535, Metabolic Activation: HAMSTER LIVER S-9, AROCLOR 1254 (10%), Method: PREINCUBATION) “inactive; negative”; (Test System: AMES SALMONELLA TYPHIMURIUM, Strain/Indicator: TA1535, Metabolic Activation: HAMSTER, LIVER, S-9, AROCLOR 1254 (10%), Method: PREINCUBATION) “inactive; negative”. Also, the mutagenic call is “inactive; negative” (Test System: AMES SALMONELLA TYPHIMURIUM, Strain/Indicator: TA1535, Metabolic Activation: NONE, Method: PREINCUBATION); “inactive; negative” (Test System: AMES SALMONELLA TYPHIMURIUM, Strain/Indicator: TA1535, Metabolic Activation: RAT LIVER S-9, AROCLOR 1254 (10%), Method: PREINCUBATION); “inactive; negative” (Test System: AMES SALMONELLA TYPHIMURIUM, Strain/Indicator: TA1535, Metabolic Activation: RAT, LIVER, S-9, AROCLOR 1254 (10%), Method: PREINCUBATION); “inactive; negative” (Test System: AMES SALMONELLA TYPHIMURIUM, Strain/Indicator: TA1537, Metabolic Activation: HAMSTER LIVER S-9, AROCLOR 1254 (10%), Method: PREINCUBATION); “inactive; negative” (Test System: AMES SALMONELLA TYPHIMURIUM, Strain/Indicator: TA1537, Metabolic Activation: HAMSTER, LIVER, S-9, AROCLOR 1254 (10%), Method: PREINCUBATION); “inactive; negative” (Test System: AMES SALMONELLA TYPHIMURIUM, Strain/Indicator: TA1537, Metabolic Activation: NONE, Method: PREINCUBATION). The mutagenic call reads like this: (Test System: AMES SALMONELLA TYPHIMURIUM, Strain/Indicator: TA1537, Metabolic Activation: RAT LIVER S-9, AROCLOR 1254 (10%), Method: PREINCUBATION) “inactive; negative”; (Test System: AMES SALMONELLA TYPHIMURIUM, Strain/Indicator: TA1537, Metabolic Activation: RAT, LIVER, S-9, AROCLOR 1254 (10%), Method: PREINCUBATION) “inactive; negative”; under setting [7], “inactive; negative”.

`C[n+]1c2cc(N)ccc2cc2ccc(N)cc21` (tested in a mixture with another compound): the mutagenic call is “inactive; negative” under setting [1]; “active; positive” under setting [2]; “inactive; negative” under setting [3]; “active; positive” under setting [4]; “inactive; negative” under setting [5]; “active; positive” under setting [6]. Also, the mutagenic call (Test System: CHINESE HAMSTER OVARY, Strain/Indicator: CHO-K1-BH4 (HGPRT), Metabolic Activation: RAT, LIVER, S-9, AROCLOR, Method: SUSPENSION/PLATE) is “active; positive”.

For `COc1ccc(NC(C)=O)cc1N`, the mutagenic call was “active; positive (structural changes); authors report equivocal results for ploidy chang” (End Point: IN VITRO CHROMOSOMAL ABERRATIONS, Test System: CHL CELLS, Metabolic Activation: RAT, LIVER, S-9, SODIUM PHENOBARBITAL AND 5,6-BENZOFLAVONE); “inactive; negative” under setting [8]; “active; positive” (Test System: AMES SALMONELLA TYPHIMURIUM, Strain/Indicator: TA98, Metabolic Activation: RAT, LIVER, S-9, PHENOBARBITAL AND BETA-NAPHTHOFLAVONE, Method: PREINCUBATION); “inactive; negative” under setting [9]; “active; positive” (Test System: AMES SALMONELLA TYPHIMURIUM, Strain/Indicator: TA100, Metabolic Activation: RAT, LIVER, S-9, PHENOBARBITAL AND BETA-NAPHTHOFLAVONE, Method: PREINCUBATION).
